Active and inactive are the calls of the source. No cut-off for these calls is given here.
What was measured:
[1] = target: T1, von Hippel-Lindau disease tumor suppressor/Son of sevenless homolog 1 (Homo sapiens) (UniProt Q07889+P40337); assay: In vivo PROTAC activity at VHL/SOS1 in human ASPC1 cells harboring KRAS G12D mutant xenografted BALB/c nude mouse assessed as decrease in phosphorylated ERK expression at 10 to 20 mg/kg, ip administered once daily for 3 weeks by Immunoblot analysis; type: functional, organism-based; conditions: dose 10-20 mg/kg
[2] = target: T1, von Hippel-Lindau disease tumor suppressor/Son of sevenless homolog 1 (Homo sapiens); assay: PROTAC activity at VHL/SOS1 in human NCI-H358 cells assessed as induction of SOS1 protein degradation at 1.0 uM incubated for 24 hrs by Immunoblot analysis relative to control; type: cell-based
[3] = target: T1, von Hippel-Lindau disease tumor suppressor/Son of sevenless homolog 1 (Homo sapiens); assay: PROTAC activity at VHL/SOS1 in human HPAF-II cells harboring KRAS G12D mutant assessed as induction of SOS1 degradation by measuring maximal efficacy at 1 to 2000 nM incubated for 24 hrs by Immunoblot analysis relative to control; type: cell-based; conditions: dose 1-2000 nM
[4] = test system: CAL-62; assay: Antiproliferative activity against human CAL-62 cells harboring KRAS G12R mutant assessed as inhibition of cell proliferation incubated for 7 days by CellTiterGlo-3D proliferation assay; type: functional, cell-based; conditions: time 7.0 day
[5] = test system: ASPC1; assay: Antitumor activity against human ASPC1 cells harboring KRAS G12D mutant xenografted in BALB/c nude mouse assessed as tumor growth inhibition at 20 mg/kg, ip administered once daily for 3 weeks relative to control; type: functional; conditions: ASPC1, 504 h, read-out: TGI
[6] = test system: A549; assay: Antiproliferative activity against human A549 cells harboring KRAS G12S mutant assessed as inhibition of cell proliferation incubated for 7 days by CellTiterGlo-3D proliferation assay; type: functional, cell-based; conditions: A549, 168 h
[7] = target: T1, von Hippel-Lindau disease tumor suppressor/Son of sevenless homolog 1 (Homo sapiens); assay: PROTAC activity at VHL/SOS1 in human MIA PaCa-2 cells harboring KRAS G12C mutant assessed as induction of SOS1 degradation by measuring maximal efficacy at 1 to 2000 nM incubated for 24 hrs by Immunoblot analysis relative to control; type: cell-based; conditions: dose 1-2000 nM
[8] = target: T1, von Hippel-Lindau disease tumor suppressor/Son of sevenless homolog 1 (Homo sapiens); assay: PROTAC activity at VHL/SOS1 in human NCI-H441 cells harboring KRAS G12V mutant assessed as induction of SOS1 degradation by measuring maximal efficacy at 1 to 2000 nM incubated for 24 hrs by Immunoblot analysis relative to control; type: cell-based; conditions: dose 1-2000 nM
[9] = target: T1, von Hippel-Lindau disease tumor suppressor/Son of sevenless homolog 1 (Homo sapiens); assay: In vivo PROTAC activity at VHL/SOS1 in human SW620 cells harboring KRAS G12V mutant xenografted BALB/c nude mouse assessed as decrease in phosphorylated ERK expression in tumor at 10 to 20 mg/kg, ip administered once daily for 2 weeks by immunohistochemistry analysis; type: functional, organism-based; conditions: SW-620, dose 10-20 mg/kg
[10] = target: von Hippel-Lindau disease tumor suppressor/Son of sevenless homolog 1/Elongin-B/Elongin-C (Homo sapiens) (UniProt Q07889+P40337+Q15370+Q15369); assay: Binding affinity to GST tagged human SOS1(564 to 1049 residues)-6his tagged human VHL (54 to 213 residues)-human ElonginC (17 to 112 residues)-human ElonginB (1 to 104 residues) expressed in Escherichia coli BL21 (DE3) cells assessed as ternary complex formation by measuring maximal HTRF signals incubated for 15 mins by HTRF analysis
[11] = target: T1, von Hippel-Lindau disease tumor suppressor/Son of sevenless homolog 1 (Homo sapiens); assay: PROTAC activity at VHL/SOS1 in human SW620 cells harboring KRAS G12V mutant assessed as induction of SOS1 degradation by measuring maximal efficacy at 1 to 2000 nM incubated for 24 hrs by Immunoblot analysis relative to control; type: cell-based; conditions: dose 1-2000 nM
[12] = target: T1, von Hippel-Lindau disease tumor suppressor/Son of sevenless homolog 1 (Homo sapiens); assay: PROTAC activity at VHL/SOS1 in human SNU-C2B cells harboring KRAS G12D mutant assessed as induction of SOS1 degradation by measuring maximal efficacy at 1 to 2000 nM incubated for 24 hrs by Immunoblot analysis relative to control; type: cell-based; conditions: dose 1-2000 nM
[13] = target: T2, Son of sevenless homolog 1 (Homo sapiens, UniProt Q07889); assay: Binding affinity to GST-tagged human SOS1 (564 to 1049 residues) expressed in Escherichia coli BL21 (DE3) cells assessed as ternary complex formation by measuring dissociation constant incubated for 15 mins in the presence of 6His tagged human VCB by fluorescence polarization-based displacement assay
T2 sequence (Q07889 whole entry): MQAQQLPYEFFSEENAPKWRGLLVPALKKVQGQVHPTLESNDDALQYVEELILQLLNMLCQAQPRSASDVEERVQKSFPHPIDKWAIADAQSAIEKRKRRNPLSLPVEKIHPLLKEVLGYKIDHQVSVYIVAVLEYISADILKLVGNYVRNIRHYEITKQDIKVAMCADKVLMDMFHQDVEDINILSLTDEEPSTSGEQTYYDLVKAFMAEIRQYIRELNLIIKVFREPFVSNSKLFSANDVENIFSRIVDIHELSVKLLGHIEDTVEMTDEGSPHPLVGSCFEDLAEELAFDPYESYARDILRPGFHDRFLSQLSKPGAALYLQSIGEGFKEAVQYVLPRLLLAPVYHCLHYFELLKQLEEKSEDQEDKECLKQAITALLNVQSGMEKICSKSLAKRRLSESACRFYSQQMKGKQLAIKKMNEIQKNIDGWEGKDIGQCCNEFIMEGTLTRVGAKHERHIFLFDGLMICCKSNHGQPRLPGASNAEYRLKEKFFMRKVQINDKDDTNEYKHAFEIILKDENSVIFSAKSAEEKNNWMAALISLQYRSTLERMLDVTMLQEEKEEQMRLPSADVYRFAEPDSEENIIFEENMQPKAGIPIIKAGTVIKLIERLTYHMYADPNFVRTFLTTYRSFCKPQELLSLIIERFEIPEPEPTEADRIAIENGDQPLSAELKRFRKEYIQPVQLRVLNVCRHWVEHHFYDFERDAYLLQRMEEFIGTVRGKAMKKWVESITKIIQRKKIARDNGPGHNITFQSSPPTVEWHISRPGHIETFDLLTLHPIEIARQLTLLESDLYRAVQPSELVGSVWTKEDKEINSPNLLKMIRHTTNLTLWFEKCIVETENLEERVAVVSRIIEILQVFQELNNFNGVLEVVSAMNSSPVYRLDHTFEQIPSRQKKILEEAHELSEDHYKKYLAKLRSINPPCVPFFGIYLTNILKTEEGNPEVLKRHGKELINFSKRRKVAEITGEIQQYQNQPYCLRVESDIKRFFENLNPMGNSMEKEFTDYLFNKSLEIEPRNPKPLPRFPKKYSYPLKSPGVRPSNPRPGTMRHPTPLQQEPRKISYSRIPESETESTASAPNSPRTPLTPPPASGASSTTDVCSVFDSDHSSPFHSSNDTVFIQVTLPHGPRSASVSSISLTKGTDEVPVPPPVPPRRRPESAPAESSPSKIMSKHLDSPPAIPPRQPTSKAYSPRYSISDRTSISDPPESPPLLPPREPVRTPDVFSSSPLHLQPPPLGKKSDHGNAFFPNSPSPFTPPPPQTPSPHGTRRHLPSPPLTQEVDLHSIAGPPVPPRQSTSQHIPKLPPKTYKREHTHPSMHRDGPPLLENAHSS

[14] = target: T1, von Hippel-Lindau disease tumor suppressor/Son of sevenless homolog 1 (Homo sapiens); assay: PROTAC activity at VHL/SOS1 in human ASPC1 cells harboring KRAS G12D mutant with shRNA lentivirus mediated VHL knockdown assessed as induction of SOS1 degradation at 1 uM incubated for 24 hrs by Immunoblot analysis; type: cell-based

COc1cc2nc(C)nc(N[C@H](C)c3cc(N)cc(C(F)(F)F)c3)c2cc1C1CCN(C(=O)CCCCCC(=O)N[C@H](C(=O)N2C[C@H](O)C[C@H]2C(=O)N[C@@H](C)c2ccc(-c3scnc3C)cc2)C(C)(C)C)CC1
Activity [1]: Active
Activity [2]: 98.2%
Emax [3]: > 95%
inhibition [4]: inactive
inhibition in vivo at 20 mg/kg [5]: 70.2%
IC50 [6]: 105 nM
Emax [7]: > 95%
Emax [8]: > 95%
Activity [9]: Active
Activity [10]: Active
Emax [11]: > 95%
Emax [12]: > 95%
Kd [13]: 8.13 nM
Activity [14]: inactive

— ChEMBL document CHEMBL5247656, “Discovery of a Potent, Cooperative, and Selective SOS1 PROTAC ZZ151 with In Vivo Antitumor Efficacy in KRAS-Mutant Cancers” (J Med Chem, 2023)
